Reference: article PMC12333940, “A prometabolite strategy inhibits cardiometabolic disease in an ApoE^–/– murine model of atherosclerosis” (JCI Insight, 2025)
Several values for one entry are separate records, joined by “and”; a condition that tells them apart may be missing. Equal values may be shown once.

Tests used:
RAW 264.7 macrophages = assay: Flow cytometry of iNOS, CD80, CD86 in LPS-stimulated RAW 264.7; assay type: cell-based; details: for CD80 MFI / iNOS MFI: then LPS 6 h; for CD80+ % Live / CD86+ % Live / iNOS+ %Live: listed as NB;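 as to CD80 MFI: LPS 200 ng/mL for 6 h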;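 as to iNOS MFI: LPS 200 ng/mL for 6 h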
Experimental: RAW 264.7 (ATCC, TIB-71) macrophages were cultured at 37°C and 5% CO2 in DMEM (Gibco) supplemented with 1 mM HEPES, 1 mM sodium pyruvate, 10% FBS, and penicillin/streptomycin. Cells were plated in round-bottom 96-well plates at 100,000 cells per well and incubated with different concentrations of either NaBut or SerBut (0.15–12 mM) for 24 hours. […] The cell culture supernatant was collected and analyzed by LEGENDPlex to analyze the concentrations of cytokines (BioLegend). Cell phenotype was analyzed using flow cytometry (Cytek Aurora).
Flow cytometry was performed using a BD LSRFortessa or a Cytek Aurora full-spectrum cytometer. Data were analyzed using FlowJo version 10.8.0. eFluor 780 Viability Dye (Invitrogen, 65-0865-14) and antibodies against the following markers were used in the RAW 264.7 macrophage in vitro studies: CD86 (BV421; BD Horizon, catalog 564198), CD80 (BC650; BioLegend, clone 16-10A1, catalog 104732), and iNOS (APC; Invitrogen, clone CXNFT, catalog 17-5920-9). Live/Dead Blue (Invitrogen, 123105A) and antibodies against the following markers were used in the atherosclerosis mouse models: F4/80 (FITC; BioLegend, clone BM8, catalog 123108), CD3e (BV605; BD Biosciences, clone 145-2C11, catalog 563565), CD4 (BUV496; BD Biosciences, clone GK 1.5, catalog 612952), RORγt (AF647; BD Biosciences, clone Q31-378, catalog 562682), FoxP3 (AF488, BD Biosciences, clone MF23, catalog 560403), CCR2 (PE; R&D Systems, catalog FAB5538P), Ly6C (APC-Cy7; BioLegend, catalog 128026, clone HK1.4), Ly6G (AF488; BioLegend, catalog 127626), CD8 (APC-Cy7; BioLegend, clone 53-6.7, catalog 100714), CD45 (BUV805; Invitrogen, clone 30-F11, catalog 368-0451-82), and CD25 (PerCP-Cy5.5; BioLegend, clone PC61, catalog 102030).

ApoE^–/– mice on an HFD [1] = assay: CD68 immunohistochemistry and Stary plaque severity grading; assay type: in vivo, mouse; design: STARY Score Average: scale not given here
Experimental: (§1) For 6 weeks, mice were freely administered water, water containing 150 mM SerBut, or water containing an equimolar amount of NaBut. SerBut water was pH adjusted using 10 M NaOH to a final pH of 7.4. […] In concert, mice were fed an HFD with 42% from fat and 0.2% total cholesterol (Envigo, TD-88137) ad libitum. After 6 weeks, mice were euthanized. The lMLNs, ILNs, spleen, heart, and aorta were harvested and processed for flow cytometry analysis ([67]). The liver was harvested and part was homogenized in tissue protein extraction reagent buffer (Invitrogen, 78510) supplemented with protease inhibitor mini tablets (Thermo Fisher Scientific, PIA32955) for Western blotting and qPCR. The remaining liver was fixed with 4% paraformaldehyde and embedded in paraffin for histological analysis.
Frozen aortic root sections were fixed in Zamboni fixative for 10 minutes. After TBS wash, slides were loaded on Leica Bond RX automated stainer. Anti–mouse CD68 antibody (BioLegend, catalog 137001, clone FA-11; 1:4000) was applied to tissue sections for 60 minutes of incubation at room temperature. Following TBS wash, tissue sections were incubated with rabbit anti-rat IgG (Thermo Fisher Scientific, 31219) 30 minutes. The antigen-antibody binding was detected using Polymer-HRP (Leica Biosystems, Bond Polymer Refine Detection kit, DS9800). The slides were coverglassed by autocoverslipper (Tissue-Tek Glas g2). Stary plaque severity grading was done as previously described ([42]). Briefly, each individual mouse was scored if there were at least 2 sections showing all 3 leaflets of the aortic valve that could reasonably be scored. Each leaflet was scored individually per aortic valve and subsequently averaged per section. All sections were averaged per mouse for a final score. Sections were graded blinded. Table 1 explains the scoring scale. Quantitative analysis of plaque features was performed using a classifier in QuPath (v.05.0).

ApoE^–/– mice on an HFD [2] = assay: Histological grading and scoring of livers; assay type: in vivo, mouse; design: key to Liver Grading and Staging: Lobular inflammation (CD3+): one focus in which more than 10 periductal CD3^+ lymphocytes are found in an ×200 field; 2 to 5 instances of more than 10 periductal CD3^+ immune cells in an ×200 field; 3: Any sample exceeding this threshold
Experimental: as §1
Sections (8 μm thick) were stained. Digital image files were created with an Olympus VS200 Research Slide Scanner (Olympus/Evident) with a Hamamatsu ORca-Fusion camera (Hamamatsu Photonics) at ×40 magnification. Individual images were created with the OlyVIA Viewer software (Olympus/Evident). Scoring and grading was performed by a pathologist as previously described ([48]). Immunohistochemistry grading was informed by age-matched WT controls. In age-matched WT controls, CD3^+ immune cells were seen scattered without distinct aggregate formation nor associated tissue reaction. In an ×400 field, we observed up to 25 CD3^+ immune cells scattered in an even distribution, with rare events of up to 10 periductal CD3^+ immune cells but with no associated ductal or parenchymal reaction. […] Furthermore, a score of 2 corresponds to 2 to 5 instances of more than 10 periductal CD3^+ immune cells in an ×200 field. Any sample exceeding this threshold was scored a 3.

[3] = 0.45 mM, 12 Hour LPS stim after Butyrate treament
[4] = 0.45 mM, 12 hour LPS stim before butyrate treatment
[5] = 1.3 mM, 12 Hour LPS stim after Butyrate treament
[6] = 1.3 mM, 12 hour LPS stim before butyrate treatment
[7] = liver, individual mice, 150 mM ad libitum for 6 weeks, HFD

CCCC(=O)[O-].[Na+] [NaBut, sodium butyrate, reference compound]
CD80 MFI (RAW 264.7 macrophages; 0.15 mM 24 h): 22618 and 22070 and 22276
iNOS MFI (RAW 264.7 macrophages; 0.15 mM 24 h): 132178 and 120454 and 127565
CD80 MFI (RAW 264.7 macrophages; 0.45 mM 24 h): 22987 and 22543 and 22840
iNOS MFI (RAW 264.7 macrophages; 0.45 mM 24 h): 139940 and 135604 and 131383
CD80+ % Live (RAW 264.7 macrophages; [3]): 31.4% and 45.9% and 36.7%
CD86+ % Live (RAW 264.7 macrophages; [3]): 10.9% and 12.8% and 11.6%
iNOS+ %Live (RAW 264.7 macrophages; [3]): 72.8% and 94.5% and 85.8%
CD80+ % Live (RAW 264.7 macrophages; [4]): 55.4% and 59.7% and 52.7%
CD86+ % Live (RAW 264.7 macrophages; [4]): 16.4% and 16% and 15.5%
iNOS+ %Live (RAW 264.7 macrophages; [4]): 39.7% and 50% and 39.3%
CD80 MFI (RAW 264.7 macrophages; 1.3 mM 24 h): 22932 and 22915 and 22360
iNOS MFI (RAW 264.7 macrophages; 1.3 mM 24 h): 123416 and 155157 and 124806
CD80+ % Live (RAW 264.7 macrophages; [5]): 40.8% and 54.3% and 32.8%
CD86+ % Live (RAW 264.7 macrophages; [5]): 22.7% and 26% and 18.7%
iNOS+ %Live (RAW 264.7 macrophages; [5]): 66.2% and 87.1% and 52%
CD80+ % Live (RAW 264.7 macrophages; [6]): 47.8% and 46.8% and 51.4%
CD86+ % Live (RAW 264.7 macrophages; [6]): 16.7% and 17.4% and 18.3%
iNOS+ %Live (RAW 264.7 macrophages; [6]): 31.6% and 29.4% and 31.8%
STARY Score Average (ApoE^–/– mice on an HFD [1]; average per mouse, experiments 1 and 2, grades per the 1st table): 4 and 4.278 and 4.083 and 3.889 and 4.367 and 4.595 and 4.611 and 4.667
CD68+ IHC Quantification CD68 % Lesion (ApoE^–/– mice on an HFD [1]; individual mice): 65.946 % Lesion and 80.0675 % Lesion and 77.46 % Lesion and 69.3112 % Lesion and 58.965 % Lesion and 57.8207 % Lesion and 65.2988 % Lesion
CD68+ IHC Quantification CD68+ (um2) (ApoE^–/– mice on an HFD [1]; individual mice): 195963 um2 and 152245 um2 and 221322 um2 and 227819 um2 and 178448 um2 and 177016 um2 and 268099 um2
CD68+ IHC Quantification Intima % Lesion (ApoE^–/– mice on an HFD [1]; individual mice): 12.0227 % Lesion and 7.77 % Lesion and 10.3458 % Lesion and 13.4964 % Lesion and 17.8935 % Lesion and 30.3544 % Lesion and 12.0651 % Lesion
CD68+ IHC Quantification Intima (um2) (ApoE^–/– mice on an HFD [1]; individual mice): 36578.9 um2 and 15233.4 um2 and 30544.5 um2 and 45695.4 um2 and 53110.1 um2 and 102496 um2 and 50318.2 um2
CD68+ IHC Quantification Necrotic Core % Lesion (ApoE^–/– mice on an HFD [1]; individual mice): 21.7224 % Lesion and 11.9211 % Lesion and 11.8215 % Lesion and 16.7081 % Lesion and 22.5501 % Lesion and 9.461 % Lesion and 22.3112 % Lesion
CD68+ IHC Quantification Necrotic Core (um2) (ApoE^–/– mice on an HFD [1]; individual mice): 64440.8 um2 and 22667.5 um2 and 33872.5 um2 and 54918.5 um2 and 69955.9 um2 and 28166.5 um2 and 89527.4 um2
CD3^+ immune cell infiltration into the livers, lobular inflammation (ApoE^–/– mice on an HFD [2]; 6 weeks): Neither SerBut nor NaBut significantly reduced
hepatocellular nuclear hypertrophy (ApoE^–/– mice on an HFD [2]; 6 weeks): suppressed
Liver Grading and Staging: Balooning Grade, Hypertrophy (ApoE^–/– mice on an HFD [2]; [7]): 2 and 1
Liver Grading and Staging: Lobular inflammation (CD3+) (ApoE^–/– mice on an HFD [2]; [7]): 1 and 2 and 3 and 0
Liver Grading and Staging: Steatosis Grade, Macro fat (ApoE^–/– mice on an HFD [2]; [7]): 1 and 2
NAS score (steatosis, inflammation, Ballooning) (ApoE^–/– mice on an HFD [2]; [7]): 4 and 5 and 6 and 3 and 2
